Assay results: patent publication US20100135903A1, “USE OF A DNA DAMAGING AGENT AND A LIGAND FOR THE TREATMENT OF CANCER” (MEDVET SCIENCE PTY. LTD., priority 2006, published 2010)
Read-outs that look alike come from different tables or passages of the source.

How the values were obtained:
Raji = assay: Binding of La-specific mAb to apoptotic human cancer cell lines (Raji); settings: 2 μM staurosporine, 20 μg/mL etoposide or 0.1 μg/mL vincristine, 3B9-FITC staining
Jurkat = assay: Binding of La-specific mAb to apoptotic human cancer cell lines (Jurkat); settings: 0.5 μM staurosporine, 20 μg/mL etoposide or 0.1 μg/mL vincristine, 3B9-FITC staining
U2OS = assay: Binding of La-specific mAb to apoptotic human cancer cell lines (U2OS); type: cell-based; settings: 0.5 μM staurosporine, 20 μg/mL etoposide, 3B9-FITC staining
Method: Direct immunofluorescence staining was performed using 1-2×10^5 cells at 10^6 cells/mL for 30 min at room temperature in PBS containing 0.1% BSA and 5 μg/mL of FITC-conjugated mAb. […] Cell viability was assessed by the exclusion of PI detected using the FL-2 (585-nm filter) or the exclusion of 7-AAD detected using the FL-3 (>650 nm filter).

HeLa = assay: Binding of La-specific mAb to apoptotic human cancer cell lines (HeLa); settings: 0.5 μM staurosporine, 20 μg/mL etoposide or 0.1 μg/mL vincristine, 3B9-FITC staining
apoptotic Jurkat cells = assay: MDC inhibition of protein crosslinking and 3B9 binding in cisplatin-treated Jurkat cells; type: cell-based, human; settings: for IC50: Homo sapiens, read-out: concentration of MDC required to inhibit half of the binding of 3B9
Method: FIG. 18 depicts that La antigen is crosslinked during apoptosis. (A) Jurkat cells incubated in 20 μg/mL cisplatin were removed at specified time points and incubated for 10 min. in 1% Triton X-100 solution before 3B9 binding analysis. Data are presented as density plots of staining with 3B9 vs. 7-AAD. (B) Immunoblots of cell lysates of control and cisplatin-treated Jurkat cells were probed with 3B9 for expression of La (top panels) or actin as a loading control (bottom panels) at specified times. (C) Jurkat cells incubated in the absence or presence of increasing concentrations of cisplatin were labeled with cadaverine-biotin added at 100 μM for 48 h. Cells were stained with strepatavidin-Alexa488 and analyzed by flow cytomtery. Data shown are MFI±SEM (n=3). (D) Jurkat cells incubated in the absence or presence of 20 μg/mL cisplatin were incubated with increasing concentrations of MDC. Cells were analyzed at specified times (24 □, 48 ? and 72 h ▪) for sulforhodamine 101 staining. Inset summarizes the dependence of the protein cross-linking ratio on MDC concentration at 48 h (—) and 72 h ( . . . ) after cisplatin treatment of Jurkat cells. (E) Jurkat cells incubated with cisplatin in the absence or presence of increasing concentrations of MDC were stained with 3B9. 3B9-specific binding is presented as Net MFI±SEM (n=3). Inset summarizes the dependence of 3B9-specific binding on MDC concentration at 24 h (—), 48 h (— —) and 72 h ( . . . ) after cisplatin treatment of Jurkat cells. Data are representative of three identical and independent assays, which produced similar results.
Transglutaminase 2 (TG2)-mediated protein-protein crosslinking in apoptotic cells was investigated using a modification of a previously described method. Briefly, cells were resuspended at 1×10^6 cells/mL in PBS containing 1% Triton X-100, 0.2 μg/mL sulforhodamine 101 and 0.1 μM SytoxGreen. Samples were vortexed and incubated for 5 min. before analysis by flow cytometry where fluorescence from Sytox Green and sulforhodamine were detected using FL-1 and FL-3, respectively. The degree of crosslinking in apoptotic cells was calculated as the ratio of the MFI of sulforhodamine staining in apoptotic cells to the MFI in control cells (protein crosslinking ratio). In other experiments, cells were incubated with PBS or 1% Triton X-100 in PBS for 10 min. at RT with intermittent vortexing.
To test inhibition of protein crosslinking, cultured cells were incubated with increasing concentrations of the competitive TG2inhibitor, monodansylcadaverine (MDC). MDC was dissolved in DMSO at 25 mM and then diluted in culture media before it was added to cell cultures at the specified concentrations for the specified duration. […]

PANC-1 cells [1] = assay: MTS proliferation assay of PANC-1 cells; type: cell-based, human
Method: FIG. 50 depicts that gemcitabine and TSA synergise to reduce proliferation rates among PANC-1 cells in vitro. PANC-1 cells (2×10^4 cells) were seeded in flat bottom 96-well plates overnight using phenol-free RPMI-1640 medium containing 10% FCS (medium). A serial dilution of 2×10^4 cells was used to construct a standard curve for the MTS assay. Triplicate wells were incubated with increasing concentrations of TSA (nM) with or without the addition of increasing concentrations of gemcitabine. Three identical plates were incubated for 24, 48 or 72 h then medium was decanted and fresh medium (100 μL) containing 20 μL MTS/PMS substrate was added to all wells. Assays were performed according to the manufacturer's instructions. The change in the absorbance reading over time was calculated for each condition in units of change per 12 h (upper panel), which was converted to units of cell number change per 12 h (lower panel) using a standard curve of the absorbance reading […] (r^2=0.99).

PANC-1 cells [2] = assay: Cell death and 3B9 binding of PANC-1 cells treated with gemcitabine and TSA in vitro; type: cell-based, human; settings: compared with control or single agent
Method: FIG. 15 depicts that 3B9 binding to dead PANC-1 cells is augmented after combination treatment with gemcitabine and TSA produced additive cytotoxicity and DNA-damaging effects. PANC-1 cells were incubated with increasing concentrations of gemcitabine in the absence (clear columns) or presence of 100 ng/mL (hatched columns) or 200 ng/mL (filled columns) of TSA. Analysis was done for viability using 7-AAD (A), 3B9-specific binding (B) and DNA damage using γH2AX staining (C). Data are presented as mean±SEM from three independent experiments. Photomicrographs show PANC-1 cells treated with gemcitabine and TSA (+) or not (−), which were stained with γH2AX-specific mAb and 7-AAD (D).
Apoptosis or cell death was induced by adding cytotoxic drugs to culture media at the specified concentrations. […] Control (untreated) cells had ≧90% viability determined by PI or trypan blue staining (data not shown). […]
Indirect immunofluorescence staining was performed using purified mouse antibodies at 5 μg/mL for 30 min. at room temperature (RT) in PBS followed by Alexa488-conjugated anti-mouse IgG at 2 μg/mL for 30 min. at RT in PBS. […] Cells were washed then incubated (30 min. at RT) with 2 μg/mL of FITC-conjugated anti-rabbit IgG antibody, which was detected using the FL-1 channel. […] Flow cytometry data were analyzed using WinMDI v2.8 (Scripps Research Institute, La Jolla, Calif.). […]

Row | SMILES | percentage of PI+ and 3B9+ events after subtraction of control (PI+ and Sal5+) events (Raji) [%] | percentage of PI+ and 3B9+ events after subtraction of control (PI+ and Sal5+) events (Jurkat) [%] | percentage of PI+ and 3B9+ events after subtraction of control (PI+ and Sal5+) events (U2OS) [%] | percentage of PI+ and 3B9+ events after subtraction of control (PI+ and Sal5+) events (HeLa) [%] | also measured
1 | COc1cc([C@@H]2c3cc4c(cc3[C@@H](O[C@@H]3O[C@@H]5CO[C@@H](C)O[C@H]5[C@H](O)[C@H]3O)[C@H]3COC(=O)[C@H]23)OCO4)cc(OC)c1O [Etoposide, etoposide] | 21.3 | 22.6 | 28.0 | 36.1 | –
2 | CN(C)c1cccc2c(S(=O)(=O)NCCCCCN)cccc12 [MDC, monodansylcadaverine] | – | – | – | – | IC50 (apoptotic Jurkat cells; 24 h after cisplatin treatment of Jurkat cells): 260 ± 1 µM; IC50 (apoptotic Jurkat cells; 48 h after cisplatin treatment of Jurkat cells): 110 ± 1 µM; IC50 (apoptotic Jurkat cells; 72 h after cisplatin treatment of Jurkat cells): 150 ± 1 µM; effect on protein crosslinking (sulforhodamine crosslinking ratio) (apoptotic Jurkat cells; cisplatin-treated Jurkat cells): dose-dependent inhibitory effect
3 | CN[C@@H]1C[C@H]2O[C@@](C)([C@@H]1OC)n1c3ccccc3c3c4c(c5c6ccccc6n2c5c31)C(=O)NC4 [Staurosporine, staurosporine] | 28.8 | 56.1 | 65.9 | 62.5 | –
4 | CC(/C=C/C(=O)NO)=C\[C@@H](C)C(=O)c1ccc(N(C)C)cc1 [TSA, trichostatin A] | – | – | – | – | proliferation of PANC-1 cells (PANC-1 cells [1]; TSA alone): inhibited proliferation; 3B9-specific binding to PANC-1 cells (PANC-1 cells [2]): did not alter 3B9 binding
5 | CC[C@]1(O)C[C@H]2CN(CCc3c([nH]c4ccccc34)[C@@](C(=O)OC)(c3cc4c(cc3OC)N(C=O)[C@H]3[C@@](O)(C(=O)OC)[C@H](OC(C)=O)[C@]5(CC)C=CCN6CC[C@]43[C@@H]65)C2)C1 [Vincristine, vincristine] | 9.8 | 12.1 | – | 18.6 | –
6 | Nc1ccn([C@@H]2O[C@H](CO)[C@@H](O)C2(F)F)c(=O)n1 [gemcitabine] | – | – | – | – | proliferation of PANC-1 cells (PANC-1 cells [1]; gemcitabine added at a TSA concentration of 50 nM): completely inhibited; numbers of PANC-1 cells in the cultures (PANC-1 cells [1]; gemcitabine added at a TSA concentration of 200 nM): significantly reduced the numbers
